Test results from patent publication US7022710B2, “A1 adenosine receptor antagonists” (CV Therapeutics, Inc., priority 2003, dated 2006).

Key:
human A1 AdoR = target: T1, human A1 AdoR (UniProt P30542); assay: Adenosine receptor radioligand binding assay, A1; details: competition with 0.5–1 nM 3H-CPX, membranes of CHO-A1 or DDT1 MF-2 (hamster, endogenous A1)
T1 sequence (P30542 1-326): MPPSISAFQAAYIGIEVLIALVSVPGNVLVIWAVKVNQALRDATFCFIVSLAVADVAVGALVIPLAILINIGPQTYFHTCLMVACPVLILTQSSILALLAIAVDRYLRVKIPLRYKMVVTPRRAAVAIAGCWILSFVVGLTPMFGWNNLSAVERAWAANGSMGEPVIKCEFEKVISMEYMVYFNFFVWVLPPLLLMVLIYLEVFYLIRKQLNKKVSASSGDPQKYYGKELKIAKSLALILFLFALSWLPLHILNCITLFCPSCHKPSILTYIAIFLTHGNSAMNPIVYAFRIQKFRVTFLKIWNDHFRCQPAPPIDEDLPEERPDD
Method: (§1) The cDNAs for human A1, A2A, A2B or A3 AdoRs were prepared by RT-PCR from total RNA of human cells or tissues and sequenced on both strands. The expression vector containing each of these cDNAs and a second vector containing a neomycin or puromycin-resistance gene were introduced to HEK-293 or CHO cells by Lipofectin-Plus (Life Technology). Colonies were selected by growing transfected cells in the presence of neomycin or puromycin. Stably transfected cells were maintained in Dulbecco's modified Eagle's medium (DMEM) or F-12 medium with 10% fetal bovine serum, 100 μg/ml penicillin, 100 μg/ml streptomycin and appropriate concentrations of neomycin or puromycin. These stably transfected cells were referred to as HEK-“AdoR” or CHO-“AdoR” depending on the receptors that they express. The cell lines used routinely were CHO-A1, HEK-A2A, HEK-A2B.and CHO-A3 cells. In addition, hamster DDT1 MF-2 cells that express endogenous A1 AdoRs were also used to determine the binding activities of compounds for A1 AdoRs.
(§2) Monolayers of transfected cells or DDT1 MF-2 were washed with phosphate buffered saline (PBS) and harvested in a buffer containing 10 mM HEPES (pH 7.4), 10 mM EDTA and protease inhibitors. The cells were homogenized in polytron for 1 minute at setting 4 and centrifuged at 29000 g for 15 minutes at 4° C. The cell pellets were washed with a buffer containing 10 mM HEPES (pH7.4), 1 mM EDTA and protease inhibitors, and were resuspended in the same buffer supplemented with 10% sucrose. Frozen aliquots were kept at −80° C.
(§3) The affinities of compounds for A1, A2A, A2B or A3 AdoRs were determined in competition studies using radioligands such as ^3H-CPX (A1 antagonist), or ^3H-CCPA (A1 agonist), ^3H-ZM241385 (A2A antagonist) or ^3H-CGS21680 (A2A agonist), ^3H-ZM241385 (A2B antagonist) or ^125I-AB-MECA (A3 agonist) and membranes of corresponding cells. For example, to determine the affinity for A1 AdoRs, the competition assays were started by mixing 0.5–1 nM ^3H-CPX with various concentrations of test compounds and 25–100 μg membrane proteins of CHO-A1 or DDT1 MF-2 in TE buffer (50 mM Tris and 1 mM EDTA) supplemented with 1 U/ml adenosine deaminase. The assays were incubated for 60–90 minutes, stopped by filtration onto GF/B filter plates using Packard Harvester and washed four times with ice-cold TM buffer (10 mM Tris, 1 mM MgCl2, pH 7.4). The amounts of radioligands that bound to the GF/B filter plates were determined by scintillation counting. Nonspecific binding was determined in the presence of 1–10 μM of cold ligands. Bmax and KD values were calculated using GraphPad software.

human A2B AdoR = target: T2, human A2B AdoR (Homo sapiens, UniProt P29275); assay: Adenosine receptor radioligand binding assay, A2B; details: competition with 3H-ZM241385, HEK-A2B cell membranes
T2 construct: expressed in transfected cells; host or cells: HEK-293 (HEK-A2B), membrane preparation
T2 sequence (P29275 1-332): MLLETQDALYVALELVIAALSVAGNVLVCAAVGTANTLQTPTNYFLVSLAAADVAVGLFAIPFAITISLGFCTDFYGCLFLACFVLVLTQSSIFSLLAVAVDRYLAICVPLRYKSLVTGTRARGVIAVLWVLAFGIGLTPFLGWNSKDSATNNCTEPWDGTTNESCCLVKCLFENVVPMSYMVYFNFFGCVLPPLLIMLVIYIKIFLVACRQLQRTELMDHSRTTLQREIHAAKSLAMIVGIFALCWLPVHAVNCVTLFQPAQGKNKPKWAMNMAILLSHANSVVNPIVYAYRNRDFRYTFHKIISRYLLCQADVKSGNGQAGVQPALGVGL
Method: as §1, §2, §3

Compound	Ki (human A1 AdoR) [µM]	Ki (human A2B AdoR) [µM]
(6-amino-9-propyl-8-pyrazolylpurin-2-yl)[2-(4-fluorophenyl)ethyl]amine	0.066	2.3
{[3-(aminomethyl)phenyl]methyl}(6-amino-9-propyl-8-pyrazolylpurin-2-yl)amine	0.408	7
(6-amino-9-propyl-8-pyrazolylpurin-2-yl)[2-(3-fluorophenyl)ethyl]amine	0.028	0.16
CCn1c(-n2cccn2)nc2c(N)nc(NCc3ccccc3)nc21 [(6-amino-9-ethyl-8-pyrazolylpurin-2-yl)benzylamine]	0.015	1
(4-{[(6-amino-9-propyl-8-pyrazolylpurin-2-yl)amino]methyl}phenyl)methan-1-ol	1.79	7
(6-amino-9-propyl-8-pyrazolylpurin-2-yl)(2-phenylethyl)amine	0.113	0.5
(6-amino-9-propyl-8-pyrazolylpurin-2-yl)[2-(2-chlorophenyl)ethyl]amine	0.382	3.64
(6-amino-9-propyl-8-pyrazolylpurin-2-yl)[2-(2,5-dimethoxyphenyl)ethyl]amine	0.182	1.68
(6-amino-9-propyl-8-pyrazolylpurin-2-yl)[2-(4-chlorophenyl)ethyl]amine	1.09	5
